Where “and” joins values, the source holds several entries; their conditions need not be identical. Equal entries are not always repeated. Toxic doses and inconclusive results are not listed.
System: CD2F1 mice, L1210 leukemia ip, survival T/C
Test: NCI In Vivo Anticancer Drug Screen. Data for tumor model L1210 Leukemia (intraperitoneal) in CD2F1 (CDF1) mice
Settings: higher = longer survival
Summary of the method: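 Vehicle-treated tumor-bearing mice served as controls (C) for compound-treated mice (T). Reported figure is T divided by C.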

[1] = endpoint: mean survival time, dose: 50.0 mg/kg/injection, schedule: Q01DX009 (ip), vehicle: saline
[2] = endpoint: mean survival time, dose: 100.0 mg/kg/injection, schedule: Q01DX009 (ip), vehicle: saline
[3] = endpoint: mean survival time, dose: 100.0 mg/kg/injection, schedule: Q04DX002 (ip), vehicle: saline with Tween-80
[4] = endpoint: mean survival time, dose: 200.0 mg/kg/injection, schedule: Q04DX002 (ip), vehicle: saline with Tween-80
[5] = endpoint: mean survival time, dose: 400.0 mg/kg/injection, schedule: Q04DX002 (ip), vehicle: saline with Tween-80
[6] = endpoint: mean survival time, dose: 50.0 mg/kg/injection, schedule: Q04DX003 (ip), vehicle: saline with Tween-80
[7] = endpoint: mean survival time, dose: 100.0 mg/kg/injection, schedule: Q04DX003 (ip), vehicle: saline with Tween-80
[8] = endpoint: mean survival time, dose: 200.0 mg/kg/injection, schedule: Q04DX003 (ip), vehicle: saline with Tween-80
[9] = endpoint: mean survival time, dose: 100.0 mg/kg/injection, schedule: Q01DX001 (ip), vehicle: saline with Tween-80
[10] = endpoint: mean survival time, dose: 200.0 mg/kg/injection, schedule: Q01DX001 (ip), vehicle: saline with Tween-80
[11] = endpoint: mean survival time, dose: 400.0 mg/kg/injection, schedule: Q01DX001 (ip), vehicle: saline with Tween-80
[12] = endpoint: mean survival time, dose: 100.0 mg/kg/injection, schedule: Q01DX009 (ip), vehicle: saline with Tween-80
[13] = endpoint: mean survival time, dose: 200.0 mg/kg/injection, schedule: Q01DX009 (ip), vehicle: saline with Tween-80
[14] = endpoint: mean survival time, dose: 50.0 mg/kg/injection, schedule: Q01DX009 (ip), vehicle: saline with Tween-80
[15] = endpoint: mean survival time, dose: 400.0 mg/kg/injection, schedule: Q01DX009 (ip), vehicle: saline with Tween-80
[16] = endpoint: mean survival time, dose: 400.0 mg/kg/injection, schedule: Q04DX003 (ip), vehicle: saline with Tween-80
[17] = endpoint: mean survival time, dose: 100.0 mg/kg/injection, schedule: Q01DX001 (ip), vehicle: saline

O=C(O)CP(=O)(O)O
T/C (endpoint: mean survival time, dose: 4.0 mg/kg/injection, schedule: Q01DX009 (ip), vehicle: saline): 98 % of control
T/C (endpoint: mean survival time, dose: 8.0 mg/kg/injection, schedule: Q01DX009 (ip), vehicle: saline): 96 % of control
T/C (endpoint: mean survival time, dose: 16.0 mg/kg/injection, schedule: Q01DX009 (ip), vehicle: saline): 104 % of control
T/C (endpoint: mean survival time, dose: 32.0 mg/kg/injection, schedule: Q01DX009 (ip), vehicle: saline): 98 % of control
T/C (endpoint: mean survival time, dose: 37.5 mg/kg/injection, schedule: Q01DX009 (ip), vehicle: saline): 91 % of control
T/C [1]: 95 % of control and 103 % of control
T/C (endpoint: mean survival time, dose: 64.0 mg/kg/injection, schedule: Q01DX009 (ip), vehicle: saline): 103 % of control
T/C (endpoint: mean survival time, dose: 75.0 mg/kg/injection, schedule: Q01DX009 (ip), vehicle: saline): 102 % of control
T/C [2]: 98 % of control and 102 % of control
T/C (endpoint: mean survival time, dose: 128.0 mg/kg/injection, schedule: Q01DX009 (ip), vehicle: saline): 86 % of control
T/C (endpoint: mean survival time, dose: 150.0 mg/kg/injection, schedule: Q01DX009 (ip), vehicle: saline): 100 % of control
T/C (endpoint: mean survival time, dose: 200.0 mg/kg/injection, schedule: Q01DX009 (ip), vehicle: saline): 97 % of control and 102 % of control
T/C (endpoint: mean survival time, dose: 400.0 mg/kg/injection, schedule: Q01DX009 (ip), vehicle: saline): 98 % of control and 101 % of control
T/C (endpoint: mean survival time, dose: 800.0 mg/kg/injection, schedule: Q01DX009 (ip), vehicle: saline): 93 % of control and 103 % of control

CCOc1ccccc1/C=C1\N=C(c2ccc([N+](=O)[O-])cc2)OC1=O
T/C [3]: 95 % of control
T/C [4]: 91 % of control
T/C [5]: 100 % of control

COC(=S)C(c1ccccc1)(c1ccccc1)c1ccccc1
T/C (endpoint: mean survival time, dose: 100.0 mg/kg/injection, schedule: Q04DX002 (ip), vehicle: Klucel (hydroxypropylcellulose) (HPC)): 93 % of control
T/C (endpoint: mean survival time, dose: 200.0 mg/kg/injection, schedule: Q04DX002 (ip), vehicle: Klucel (hydroxypropylcellulose) (HPC)): 89 % of control
T/C (endpoint: mean survival time, dose: 400.0 mg/kg/injection, schedule: Q04DX002 (ip), vehicle: Klucel (hydroxypropylcellulose) (HPC)): 89 % of control

CC1(C)CC(N2CCCOP2(=O)N(CCCl)CCCl)CC(C)(C)N1 (stereo not drawn)
T/C (endpoint: mean survival time, dose: 62.5 mg/kg/injection, schedule: Q01DX001 (ip), vehicle: water): 105 % of control
T/C (endpoint: mean survival time, dose: 125.0 mg/kg/injection, schedule: Q01DX001 (ip), vehicle: water): 100 % of control
T/C (endpoint: mean survival time, dose: 250.0 mg/kg/injection, schedule: Q01DX001 (ip), vehicle: water): 106 % of control

O=C(/C=C/c1ccccc1)Nc1ccc(Cl)c(Cl)c1
T/C [3]: 100 % of control
T/C [4]: 91 % of control
T/C [5]: 95 % of control

CC(=O)N(C(C)=O)c1ccc2c3c(cccc13)CC2
T/C [6]: 110 % of control
T/C [7]: 104 % of control
T/C [8]: 101 % of control

Cc1cc(Cl)c(OCC(=O)O)c(Cl)c1
T/C [7]: 100 % of control
T/C [8]: 100 % of control

COc1ccc(/C=C/C(=O)c2ccc3c(c2)OCO3)cc1OC
T/C (endpoint: mean survival time, dose: 100.0 mg/kg/injection, schedule: Q04DX003 (ip), vehicle: saline): 91 % of control
T/C (endpoint: mean survival time, dose: 200.0 mg/kg/injection, schedule: Q04DX003 (ip), vehicle: saline): 93 % of control
T/C (endpoint: mean survival time, dose: 400.0 mg/kg/injection, schedule: Q04DX003 (ip), vehicle: saline): 95 % of control

Cc1cc(C)c(C(=O)C(=S)N2CCOCC2)c(C)c1
T/C (endpoint: mean survival time, dose: 100.0 mg/kg/injection, schedule: Q04DX003 (ip), vehicle: acetone): 98 % of control
T/C (endpoint: mean survival time, dose: 200.0 mg/kg/injection, schedule: Q04DX003 (ip), vehicle: acetone): 104 % of control
T/C (endpoint: mean survival time, dose: 400.0 mg/kg/injection, schedule: Q04DX003 (ip), vehicle: acetone): 93 % of control

CCCCCCCCCCCCCCCCC1CCC2CCCCC12 (stereo not drawn)
T/C [9]: 104 % of control
T/C [10]: 107 % of control
T/C [11]: 97 % of control

CC(C)NC(=O)N(c1ccccc1)C(C)C
T/C [12]: 102 % of control
T/C [13]: 90 % of control

CCOC(=O)Nc1cc(NCC(O)CN(C)c2ccccc2)c([N+](=O)[O-])c(NC(=O)OCC)n1 (stereo not drawn)
T/C (endpoint: mean survival time, dose: 100.0 mg/kg/injection, schedule: Q01DX001 (ip), vehicle: carboxymethylcellulose (CMC)): 96 % of control
T/C (endpoint: mean survival time, dose: 200.0 mg/kg/injection, schedule: Q01DX001 (ip), vehicle: carboxymethylcellulose (CMC)): 91 % of control
T/C (endpoint: mean survival time, dose: 400.0 mg/kg/injection, schedule: Q01DX001 (ip), vehicle: carboxymethylcellulose (CMC)): 87 % of control

CCOc1ccccc1OC(=O)Nc1ccc(OC)cc1
T/C (endpoint: mean survival time, dose: 25.0 mg/kg/injection, schedule: Q01DX009 (ip), vehicle: saline with Tween-80): 97 % of control
T/C (endpoint: mean survival time, dose: 25.0 mg/kg/injection, schedule: Q04DX002 (ip), vehicle: saline with Tween-80): 114 % of control
T/C [14]: 89 % of control
T/C (endpoint: mean survival time, dose: 50.0 mg/kg/injection, schedule: Q04DX002 (ip), vehicle: saline with Tween-80): 104 % of control
T/C [12]: 97 % of control
T/C [3]: 94 % of control and 107 % of control
T/C [5]: 98 % of control

C=CCN(CC=C)CCNc1cc(C)nc(Nc2nc3ccc(Cl)cc3[nH]2)n1
T/C [9]: 94 % of control
T/C [12]: 86 % of control
T/C [10]: 92 % of control
T/C [13]: 93 % of control
T/C [11]: 94 % of control
T/C [15]: 100 % of control

COCCOCCOCCOCCOCCOCCOCCOCCOCCOCCOC(=O)N(CC[PH+](c1ccccc1)c1ccccc1)CC[PH+](c1ccccc1)c1ccccc1.[Cl][Pt][Cl]
T/C (endpoint: median survival time, dose: 3.13 mg/kg/injection, schedule: Q04DX003 (ip), vehicle: distilled water + Tween-80): 101 % of control
T/C (endpoint: median survival time, dose: 6.25 mg/kg/injection, schedule: Q04DX003 (ip), vehicle: distilled water + Tween-80): 100 % of control
T/C (endpoint: median survival time, dose: 12.5 mg/kg/injection, schedule: Q04DX003 (ip), vehicle: distilled water + Tween-80): 104 % of control
T/C (endpoint: median survival time, dose: 25.0 mg/kg/injection, schedule: Q04DX003 (ip), vehicle: distilled water + Tween-80): 96 % of control
T/C (endpoint: median survival time, dose: 50.0 mg/kg/injection, schedule: Q04DX003 (ip), vehicle: distilled water + Tween-80): 115 % of control
T/C (endpoint: median survival time, dose: 100.0 mg/kg/injection, schedule: Q04DX003 (ip), vehicle: distilled water + Tween-80): 100 % of control
T/C (endpoint: median survival time, dose: 200.0 mg/kg/injection, schedule: Q04DX003 (ip), vehicle: distilled water + Tween-80): 98 % of control

Cc1c2ccccc2c(C)c2cnccc12
T/C [12]: 97 % of control
T/C [13]: 97 % of control
T/C [15]: 92 % of control

CCC(=O)c1cccc([N+](=O)[O-])c1
T/C [9]: 100 % of control
T/C [12]: 96 % of control
T/C [7]: 102 % of control
T/C [10]: 104 % of control
T/C [13]: 97 % of control
T/C [8]: 102 % of control
T/C [11]: 93 % of control
T/C [15]: 97 % of control
T/C [16]: 98 % of control

O=C(O)C1CCCCC1c1c2ccc(=O)cc-2oc2cc(O)ccc12 (stereo not drawn)
T/C [7]: 104 % of control
T/C [8]: 92 % of control
T/C [16]: 92 % of control

CCN(CC)CCC(=O)c1ccc2ccc3ccccc3c2c1
T/C (endpoint: mean survival time, dose: 50.0 mg/kg/injection, schedule: Q01DX001 (ip), vehicle: saline): 93 % of control
T/C [17]: 89 % of control

CC(=O)Oc1cccc(C(C)=O)c1
T/C [7]: 102 % of control
T/C [8]: 100 % of control
T/C [16]: 104 % of control

COC(=O)[C@@H]1[C@@H](O)[C@H](OC(=O)c2cc(OC)c(OC)c(OC)c2)C[C@@H]2CN3CCc4c([nH]c5ccccc45)[C@H]3C[C@@H]21
T/C (endpoint: mean survival time, dose: 1.56 mg/kg/injection, schedule: Q01DX009 (ip), vehicle: saline sonified): 93 % of control
T/C (endpoint: mean survival time, dose: 3.13 mg/kg/injection, schedule: Q01DX009 (ip), vehicle: saline sonified): 95 % of control
T/C (endpoint: mean survival time, dose: 6.25 mg/kg/injection, schedule: Q01DX009 (ip), vehicle: saline sonified): 102 % of control
T/C (endpoint: mean survival time, dose: 12.5 mg/kg/injection, schedule: Q04DX003 (ip), vehicle: saline with Tween-80): 103 % of control
T/C (endpoint: mean survival time, dose: 25.0 mg/kg/injection, schedule: Q04DX003 (ip), vehicle: saline with Tween-80): 103 % of control
T/C [6]: 103 % of control

CC1/C(=N/O)C(=O)c2ccccc21 (stereo not drawn)
T/C [14]: 102 % of control
T/C [9]: 91 % of control
T/C [12]: 86 % of control
T/C [10]: 97 % of control

CC1=NN(c2cccc(S(=O)(=O)O)c2)C(=O)C1Cl (stereo not drawn)
T/C [14]: 98 % of control
T/C [12]: 95 % of control
T/C [13]: 95 % of control

N/C(=N\O)c1cn(C2OC(CO)C(O)C2O)c2ncncc12 (stereo not drawn)
T/C (endpoint: mean survival time, dose: 25.0 mg/kg/injection, schedule: Q01DX009 (ip), vehicle: saline): 159 % of control
T/C [1]: 168 % of control
T/C [2]: 102 % of control

COc1cc(Br)c(CC2c3cc(OC)c(OC)cc3CCN2C)cc1OC (stereo not drawn)
T/C [17]: 101 % of control
T/C (endpoint: mean survival time, dose: 200.0 mg/kg/injection, schedule: Q01DX001 (ip), vehicle: saline): 101 % of control

From PubChem BioAssay AID256 (DTP/NCI, 2004)
